Laboratory results: patent US11267825B2 (AICURIS GMBH & CO. KG, priority 2017, dated 2022)

How the values were obtained:
HBV core protein = HBV core protein (UniProt P03146); type: biochemical; conditions: read-out: Assembly Activity (IC50); BODIPY-FL labelled core protein, assembly started with NaCl, read after 6 min
Procedure, shortened: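 Fluorescence-quenching assembly assay using E. coli-expressed core protein 1–149 plus Cys150, labelled with BODIPY-FL maleimide, at 1.0–2.0 μM in 50 mM HEPES pH 7.5, 0.5% DMSO. Assembly started with NaCl to […]; fluorescence (ex 477/em 525 nm) read after 6 min. EC50 by non-linear regression, 8-point 0.5-log dilutions.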

HBV = experiment: Determination of HBV DNA from the supernatants of HepAD38 cells (anti-HBV activity); type: cell-based, hepatitis B virus; conditions: Hepatitis B virus, 144 h; HBV DNA in HepAD38 supernatant at day 6; read-out: Cell Activity (EC50)
Procedure, shortened: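 HepAD38 cells (60,000/well) were treated with half-log compound dilutions in tetracycline-free medium to induce HBV production. On day 6, HBV DNA was purified from filtered supernatant and quantified by real-time PCR against plasmid standards. EC50 values came from non-linear regression of relative copy numbers, typically from three experiments in triplicate.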

Chain of HBV core protein (P03146 whole entry, looked up): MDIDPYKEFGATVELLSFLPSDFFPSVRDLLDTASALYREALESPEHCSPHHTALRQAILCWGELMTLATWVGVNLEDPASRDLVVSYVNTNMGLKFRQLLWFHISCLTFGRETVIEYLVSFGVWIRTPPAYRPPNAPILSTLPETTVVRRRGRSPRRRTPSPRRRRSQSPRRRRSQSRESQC

Compound | IC50 (HBV core protein) | EC50 (HBV)
O=C(c1cc2ccccc2[nH]1)N1CCc2nc(NC3CC(CO)(CO)C3)sc2C1 [Example 42, [1-(hydroxymethyl)-3-{[5-(1H-indole-2-carbonyl)-4H,5H,6H,7H-[1,3]thiazolo[5,4-c]pyridin-2-yl]amino}cyclobutyl]methanol] | < 5 µM | < 1 µM
COC1(CNc2nc3c(s2)CN(C(=O)c2cc4ccccc4[nH]2)CC3)CCC1 [Example 414, 5-(1H-indole-2-carbonyl)-N-[(1-methoxycyclobutyl)methyl]-4H,5H,6H,7H-[1,3]thiazolo[5,4-c]pyridin-2-amine] | < 5 µM | < 1 µM
CS(=O)(=O)NC(=O)Nc1nc2c(s1)CN(C(=O)c1cc3ccccc3[nH]1)CC2 [Example 393, 1-[5-(1H-indole-2-carbonyl)-4H,5H,6H,7H-[1,3]thiazolo[5,4-c]pyridin-2-yl]-3-methanesulfonylurea] | 5 to 10 µM | 1 to 10 µM
CC(=O)N1CCOC(CNc2nc3c(s2)CN(C(=O)c2cc4ccccc4[nH]2)CC3)C1 (centres unmarked) [Example 242, 1-[2-({[5-(1H-indole-2-carbonyl)-4H,5H,6H,7H-[1,3]thiazolo[5,4-c]pyridin-2-yl]amino}methyl)morpholin-4-yl]ethan-1-one] | 5 to 10 µM | < 1 µM
Nc1nc2c(s1)CN(C(=O)c1cc3cccc(Cl)c3[nH]1)CC2 [Example 154, 5-(7-chloro-1H-indole-2-carbonyl)-4H,5H,6H,7H-[1,3]thiazolo[5,4-c]pyridin-2-amine] | < 5 µM | < 1 µM
CCc1ccc(F)c2[nH]c(C(=O)N3CCc4nc(NCC5CCOC5)sc4C3)cc12 (centres unmarked) [Example 254, 5-(4-ethyl-7-fluoro-1H-indole-2-carbonyl)-N-[(oxolan-3-yl)methyl]-4H,5H,6H,7H-[1,3]thiazolo[5,4-c]pyridin-2-amine] | < 5 µM | < 1 µM
CC(O)c1cc(F)cc2[nH]c(C(=O)N3CCc4nc(NCC5(O)CCC5)sc4C3)cc12 (centres unmarked) [Example 366, 1-[({5-[6-fluoro-4-(1-hydroxyethyl)-1H-indole-2-carbonyl]-4H,5H,6H,7H-[1,3]thiazolo[5,4-c]pyridin-2-yl}amino)methyl]cyclobutan-1-ol] | < 100 µM | < 1 µM
Cc1nc2c(s1)CN(C(=O)c1cc3c(F)c(F)ccc3[nH]1)CC2 [Example 193, 4,5-difluoro-2-{2-methyl-4H,5H,6H,7H-[1,3]thiazolo[5,4-c]pyridine-5-carbonyl}-1H-indole] | < 5 µM | < 1 µM
O=C(CC1CCOCC1)Nc1nc2c(s1)CN(C(=O)c1cc3ccccc3[nH]1)CC2 [Example 20, N-[5-(1H-indole-2-carbonyl)-4H,5H,6H,7H-[1,3]thiazolo[5,4-c]pyridin-2-yl]-2-(oxan-4-yl)acetamide] | < 5 µM | < 1 µM
Cc1nc2c(s1)CN(C(=O)c1cc3c(Cl)cccc3[nH]1)CC2 [Example 211, 4-chloro-2-{2-methyl-4H,5H,6H,7H-[1,3]thiazolo[5,4-c]pyridine-5-carbonyl}-1H-indole] | < 5 µM | < 1 µM
O=C(Nc1nc2c(s1)CN(C(=O)c1cc3c(C(F)F)cc(F)cc3[nH]1)CC2)C1CCOCC1 [Example 402, N-{5-[4-(difluoromethyl)-6-fluoro-1H-indole-2-carbonyl]-4H,5H,6H,7H-[1,3]thiazolo[5,4-c]pyridin-2-yl}oxane-4-carboxamide] | < 5 µM | < 1 µM
CC1Cc2nc(N)sc2CN1C(=O)c1cc2ccccc2[nH]1 (centres unmarked) [Example 107, 5-(1H-indole-2-carbonyl)-6-methyl-4H,5H,6H,7H-[1,3]thiazolo[5,4-c]pyridin-2-amine] | < 5 µM | < 1 µM
O=C(c1cc2ccccc2[nH]1)N1CCc2nc(NCCc3c[nH]cn3)sc2C1 [Example 286, N-[2-(1H-imidazol-4-yl)ethyl]-5-(1H-indole-2-carbonyl)-4H,5H,6H,7H-[1,3]thiazolo[5,4-c]pyridin-2-amine] | < 5 µM | < 1 µM
O=C(c1cc2ccccc2[nH]1)N1CCc2nc(NC3(CO)CCC3)sc2C1 [Example 48, (1-{[5-(1H-indole-2-carbonyl)-4H,5H,6H,7H-[1,3]thiazolo[5,4-c]pyridin-2-yl]amino}cyclobutyl)methanol] | < 5 µM | < 1 µM
O=C(c1cc2ccccc2[nH]1)N1CCc2nc(N[C@H]3CC[C@@H](O)C3)sc2C1 [Example 396, (1R,3S)-3-{[5-(1H-indole-2-carbonyl)-4H,5H,6H,7H-[1,3]thiazolo[5,4-c]pyridin-2-yl]amino}cyclopentan-1-ol] | < 5 µM | < 1 µM
CS(=O)(=O)Nc1nc2c(s1)CN(C(=O)c1cc3ccccc3[nH]1)CC2 [Example 24, N-[5-(1H-indole-2-carbonyl)-4H,5H,6H,7H-[1,3]thiazolo[5,4-c]pyridin-2-yl]methanesulfonamide] | < 100 µM | 1 to 10 µM

Compound | IC50 (HBV core protein) | EC50 (HBV)
O=C(c1cc2ccccc2[nH]1)N1CCc2nc(NC3CC(F)(F)C3)sc2C1 [Example 416, N-(3,3-difluorocyclobutyl)-5-(1H-indole-2-carbonyl)-4H,5H,6H,7H-[1,3]thiazolo[5,4-c]pyridin-2-amine] | 5 to 10 µM | < 1 µM
Nc1nc2c(s1)CN(C(=O)c1cc3cccc(OC(F)(F)F)c3[nH]1)CC2 [Example 174, 5-(7-(trifluoromethoxy)-1H-indole-2-carbonyl)-4H,5H,6H,7H-[1,3]thiazolo[5,4-c]pyridin-2-amine] | < 5 µM | 1 to 10 µM
CC(C)(C)NC(=O)Nc1nc2c(s1)CN(C(=O)c1cc3c(Cl)cc(F)cc3[nH]1)CC2 [Example 265, 3-tert-butyl-1-[5-(4-chloro-6-fluoro-1H-indole-2-carbonyl)-4H,5H,6H,7H-[1,3]thiazolo[5,4-c]pyridin-2-yl]urea] | < 100 µM | < 1 µM
NC(=O)c1nc2c(s1)CN(C(=O)c1cc3ccccc3[nH]1)CC2 [Example 201, 5-(1H-indole-2-carbonyl)-4H,5H,6H,7H-[1,3]thiazolo[5,4-c]pyridine-2-carboxamide] | < 100 µM | 1 to 10 µM
O=C(c1cc2ccccc2[nH]1)N1CCc2nc(OCc3ccccc3)sc2C1 [Example 158, 2-[2-(benzyloxy)-4H,5H,6H,7H-[1,3]thiazolo[5,4-c]pyridine-5-carbonyl]-1H-indole] | < 100 µM | 1 to 10 µM
O=C(c1cc2c(Cl)cccc2[nH]1)N1CCc2nc(NCC3CCOC3)sc2C1 (centres unmarked) [Example 121, 5-(4-chloro-1H-indole-2-carbonyl)-N-[(oxolan-3-yl)methyl]-4H,5H,6H,7H-[1,3]thiazolo[5,4-c]pyridin-2-amine] | < 5 µM | < 1 µM
CCc1cc(F)cc2[nH]c(C(=O)N3CCc4nc(NC(=O)C5CCOCC5)sc4C3)cc12 [Example 403, N-[5-(4-ethyl-6-fluoro-1H-indole-2-carbonyl)-4H,5H,6H,7H-[1,3]thiazolo[5,4-c]pyridin-2-yl]oxane-4-carboxamide] | < 5 µM | < 1 µM
CCC(C)(C)CC(=O)Nc1nc2c(s1)CN(C(=O)c1cc3ccccc3[nH]1)CC2 [Example 262, N-[5-(1H-indole-2-carbonyl)-4H,5H,6H,7H-[1,3]thiazolo[5,4-c]pyridin-2-yl]-3,3-dimethylpentanamide] | < 100 µM | < 1 µM
O=C(c1cc2ccc(Cl)cc2[nH]1)N1CCc2nc(NCC3CCOC3)sc2C1 (centres unmarked) [Example 125, 5-(6-chloro-1H-indole-2-carbonyl)-N-[(oxolan-3-yl)methyl]-4H,5H,6H,7H-[1,3]thiazolo[5,4-c]pyridin-2-amine] | < 5 µM | < 1 µM
CC(=O)N1CCOCC1CNc1nc2c(s1)CN(C(=O)c1cc3ccccc3[nH]1)CC2 (centres unmarked) [Example 232, 1-[3-({[5-(1H-indole-2-carbonyl)-4H,5H,6H,7H-[1,3]thiazolo[5,4-c]pyridin-2-yl]amino}methyl)morpholin-4-yl]ethan-1-one] | 5 to 10 µM | < 1 µM
Cc1cc(F)cc2[nH]c(C(=O)N3CCc4nc(NC(=O)C5CCOCC5)sc4C3)cc12 [Example 321, N-[5-(6-fluoro-4-methyl-1H-indole-2-carbonyl)-4H,5H,6H,7H-[1,3]thiazolo[5,4-c]pyridin-2-yl]oxane-4-carboxamide] | < 5 µM | < 1 µM
Nc1nc2c(s1)CCN(C(=O)c1cc3ccccc3[nH]1)CC2 [Example 25, 6-(1H-indole-2-carbonyl)-4H,5H,6H,7H,8H-[1,3]thiazolo[4,5-d]azepin-2-amine] | < 100 µM | < 100 µM
O=C(c1cc2ccccc2[nH]1)N1CCc2nc(NCCO)sc2C1 [Example 157, 2-{[5-(1H-indole-2-carbonyl)-4H,5H,6H,7H-[1,3]thiazolo[5,4-c]pyridin-2-yl]amino}ethan-1-ol] | < 5 µM | < 1 µM
O=C(c1cc2ccccc2[nH]1)N1CCc2nc(N[C@H]3COCC[C@@H]3O)sc2C1 (racemic) [Example 339, (±)-3-{[5-(1H-indole-2-carbonyl)-4H,5H,6H,7H-[1,3]thiazolo[5,4-c]pyridin-2-yl]amino}oxan-4-ol] | 5 to 10 µM | < 1 µM
O=C(c1cc2c(F)cc(F)cc2[nH]1)N1CCc2nc(N[C@H]3CC[C@@H](O)CC3)sc2C1 [Example 344, (1s,4s)-4-{[5-(4,6-difluoro-1H-indole-2-carbonyl)-4H,5H,6H,7H-[1,3]thiazolo[5,4-c]pyridin-2-yl]amino}cyclohexan-1-ol] | 5 to 10 µM | < 1 µM
